Test results published in article PMC9688307 (2022).

Key:
[1] = tested on: BP33-16TA (DNA, aptamer) CCGCCGTTGGTGTGGAGGGCCTAGGGCCGGCGG; assay: ITC; conditions: 100 mM NaCl, 25 mM KCl, 10 mM MgCl2; 25 mM Tris-HCl pH 8.0, 2% DMSO; 500 μM BPA into 30 μM aptamer
[2] = tested on: BP33-15GT (DNA, aptamer) CCGCCGTTGGTGTGTTGGGCCTAGGGCCGGCGG; assay: ITC; conditions: 100 mM NaCl, 25 mM KCl, 10 mM MgCl2; 25 mM Tris-HCl pH 8.0, 2% DMSO; 500 μM BPA into 30 μM aptamer
[3] = tested on: BP50 (DNA, aptamer) CCGCCGTTGGTGTGGTGGGCCTAGGGCCGGCGGCGCACAGCTGTTATAGA; assay: ITC; conditions: 100 mM NaCl, 25 mM KCl, 10 mM MgCl2; 25 mM Tris-HCl pH 8.0, 2% DMSO; 500 μM BPA into 30 μM aptamer
[4] = tested on: BP55 (DNA, aptamer) CCGCCGTTGGTGTGGTGGGCCTAGGGCCGGCGGCGCACAGCTGTTATAGACGTCT; assay: ITC; conditions: 100 mM NaCl, 25 mM KCl, 10 mM MgCl2; 25 mM Tris-HCl pH 8.0, 2% DMSO; 500 μM BPA into 30 μM aptamer
[5] = tested on: BP35 (DNA, aptamer) CCGCCGTTGGTGTGGTGGGCCTAGGGCCGGCGGCG; assay: ITC; conditions: 100 mM NaCl, 25 mM KCl, 10 mM MgCl2; 25 mM Tris-HCl pH 8.0, 2% DMSO; 500 μM BPA into 30 μM aptamer
[6] = tested on: BP40 (DNA, aptamer) CCGCCGTTGGTGTGGTGGGCCTAGGGCCGGCGGCGCACAG; assay: ITC; conditions: 100 mM NaCl, 25 mM KCl, 10 mM MgCl2; 25 mM Tris-HCl pH 8.0, 2% DMSO; 500 μM BPA into 30 μM aptamer
[7] = tested on: BP33-23AT (DNA, aptamer) CCGCCGTTGGTGTGGTGGGCCTTGGGCCGGCGG; assay: ITC; conditions: 100 mM NaCl, 25 mM KCl, 10 mM MgCl2; 25 mM Tris-HCl pH 8.0, 2% DMSO; 500 μM BPA into 30 μM aptamer
[8] = tested on: BP33-8TA (DNA, aptamer) CCGCCGTAGGTGTGGTGGGCCTAGGGCCGGCGG; assay: ITC; conditions: 100 mM NaCl, 25 mM KCl, 10 mM MgCl2; 25 mM Tris-HCl pH 8.0, 2% DMSO; 500 μM BPA into 30 μM aptamer
[9] = tested on: BP34 (DNA, aptamer) CGCCGTTGGTGTGGTGGGCCTAGGGCCGGCGGCG; assay: ITC; conditions: 100 mM NaCl, 25 mM KCl, 10 mM MgCl2; 25 mM Tris-HCl pH 8.0, 2% DMSO; 500 μM BPA into 30 μM aptamer
[10] = tested on: BP33-17GT (DNA, aptamer) CCGCCGTTGGTGTGGTTGGCCTAGGGCCGGCGG; assay: ITC; conditions: 100 mM NaCl, 25 mM KCl, 10 mM MgCl2; 25 mM Tris-HCl pH 8.0, 2% DMSO; 500 μM BPA into 30 μM aptamer
[11] = tested on: BP27 (DNA, aptamer) CCGTTGGTGTGGTGGGCCTAGGGCCGG; assay: ITC; conditions: 100 mM NaCl, 25 mM KCl, 10 mM MgCl2; 25 mM Tris-HCl pH 8.0, 2% DMSO; 500 μM BPA into 30 μM aptamer
[12] = tested on: BP33-26GT (DNA, aptamer) CCGCCGTTGGTGTGGTGGGCCTAGGTCCGGCGG; assay: ITC; conditions: 100 mM NaCl, 25 mM KCl, 10 mM MgCl2; 25 mM Tris-HCl pH 8.0, 2% DMSO; 500 μM BPA into 30 μM aptamer
[13] = tested on: BP45 (DNA, aptamer) CCGCCGTTGGTGTGGTGGGCCTAGGGCCGGCGGCGCACAGCTGTT; assay: ITC; conditions: 100 mM NaCl, 25 mM KCl, 10 mM MgCl2; 25 mM Tris-HCl pH 8.0, 2% DMSO; 500 μM BPA into 30 μM aptamer
[14] = tested on: BP33-13TA (DNA, aptamer) CCGCCGTTGGTGAGGTGGGCCTAGGGCCGGCGG; assay: ITC; conditions: 100 mM NaCl, 25 mM KCl, 10 mM MgCl2; 25 mM Tris-HCl pH 8.0, 2% DMSO; 500 μM BPA into 30 μM aptamer
[15] = tested on: BP29 (DNA, aptamer) GCCGTTGGTGTGGTGGGCCTAGGGCCGGC; assay: ITC; conditions: 100 mM NaCl, 25 mM KCl, 10 mM MgCl2; 25 mM Tris-HCl pH 8.0, 2% DMSO; 500 μM BPA into 30 μM aptamer
[16] = tested on: BP33-22TA (DNA, aptamer) CCGCCGTTGGTGTGGTGGGCCAAGGGCCGGCGG; assay: ITC; conditions: 100 mM NaCl, 25 mM KCl, 10 mM MgCl2; 25 mM Tris-HCl pH 8.0, 2% DMSO; 500 μM BPA into 30 μM aptamer
[17] = tested on: BP33-11TA (DNA, aptamer) CCGCCGTTGGAGTGGTGGGCCTAGGGCCGGCGG; assay: ITC; conditions: 100 mM NaCl, 25 mM KCl, 10 mM MgCl2; 25 mM Tris-HCl pH 8.0, 2% DMSO; 500 μM BPA into 30 μM aptamer
[18] = tested on: BP33-20CA (DNA, aptamer) CCGCCGTTGGTGTGGTGGGACTAGGGCCGGCGG; assay: ITC; conditions: 100 mM NaCl, 25 mM KCl, 10 mM MgCl2; 25 mM Tris-HCl pH 8.0, 2% DMSO; 500 μM BPA into 30 μM aptamer
[19] = tested on: BP33 (DNA, aptamer) CCGCCGTTGGTGTGGTGGGCCTAGGGCCGGCGG; assay: ITC; conditions: 100 mM NaCl, 25 mM KCl, 10 mM MgCl2; 25 mM Tris-HCl pH 8.0, 2% DMSO; 500 μM BPA into 30 μM aptamer
[20] = tested on: BP33-25GT (DNA, aptamer) CCGCCGTTGGTGTGGTGGGCCTAGTGCCGGCGG; assay: ITC; conditions: 100 mM NaCl, 25 mM KCl, 10 mM MgCl2; 25 mM Tris-HCl pH 8.0, 2% DMSO; 500 μM BPA into 30 μM aptamer
[21] = tested on: BP33-9GT (DNA, aptamer) CCGCCGTTTGTGTGGTGGGCCTAGGGCCGGCGG; assay: ITC; conditions: 100 mM NaCl, 25 mM KCl, 10 mM MgCl2; 25 mM Tris-HCl pH 8.0, 2% DMSO; 500 μM BPA into 30 μM aptamer
[22] = tested on: BP25 (DNA, aptamer) CGTTGGTGTGGTGGGCCTAGGGCCG; assay: ITC; conditions: 100 mM NaCl, 25 mM KCl, 10 mM MgCl2; 25 mM Tris-HCl pH 8.0, 2% DMSO; 500 μM BPA into 30 μM aptamer
[23] = tested on: BP33-10GT (DNA, aptamer) CCGCCGTTGTTGTGGTGGGCCTAGGGCCGGCGG; assay: ITC; conditions: 100 mM NaCl, 25 mM KCl, 10 mM MgCl2; 25 mM Tris-HCl pH 8.0, 2% DMSO; 500 μM BPA into 30 μM aptamer
[24] = tested on: BP33-12GT (DNA, aptamer) CCGCCGTTGGTTTGGTGGGCCTAGGGCCGGCGG; assay: ITC; conditions: 100 mM NaCl, 25 mM KCl, 10 mM MgCl2; 25 mM Tris-HCl pH 8.0, 2% DMSO; 500 μM BPA into 30 μM aptamer
[25] = tested on: BP33-18GT (DNA, aptamer) CCGCCGTTGGTGTGGTGTGCCTAGGGCCGGCGG; assay: ITC; conditions: 100 mM NaCl, 25 mM KCl, 10 mM MgCl2; 25 mM Tris-HCl pH 8.0, 2% DMSO; 500 μM BPA into 30 μM aptamer
[26] = tested on: BP33-27CA (DNA, aptamer) CCGCCGTTGGTGTGGTGGGCCTAGGGACGGCGG; assay: ITC; conditions: 100 mM NaCl, 25 mM KCl, 10 mM MgCl2; 25 mM Tris-HCl pH 8.0, 2% DMSO; 500 μM BPA into 30 μM aptamer
[27] = tested on: BP33-14GT (DNA, aptamer) CCGCCGTTGGTGTTGTGGGCCTAGGGCCGGCGG; assay: ITC; conditions: 100 mM NaCl, 25 mM KCl, 10 mM MgCl2; 25 mM Tris-HCl pH 8.0, 2% DMSO; 500 μM BPA into 30 μM aptamer
[28] = tested on: BP33-stem-6GT (DNA, aptamer) CCGCCTTTGGTGTGGTGGGCCTAGGGCCGGCGG; assay: ITC; conditions: 100 mM NaCl, 25 mM KCl, 10 mM MgCl2; 25 mM Tris-HCl pH 8.0, 2% DMSO; 500 μM BPA into 30 μM aptamer
[29] = tested on: BP33-stem-30GT (DNA, aptamer) CCGCCGTTGGTGTGGTGGGCCTAGGGCCGTCGG; assay: ITC; conditions: 100 mM NaCl, 25 mM KCl, 10 mM MgCl2; 25 mM Tris-HCl pH 8.0, 2% DMSO; 500 μM BPA into 30 μM aptamer
[30] = tested on: BP63 (DNA, aptamer) CCGGTGGGTGGTCAGGTGGGATAGCGTTCCGCGTATGGCCCAGCGCATCACGGGTTCGCACCA; assay: ITC; conditions: 100 mM NaCl, 25 mM KCl, 10 mM MgCl2; 25 mM Tris-HCl pH 8.0, 2% DMSO; 200 μM BPA into 20 μM aptamer
[31] = tested on: BP31 (DNA, aptamer) CGCCGTTGGTGTGGTGGGCCTAGGGCCGGCG; assay: ITC; conditions: 100 mM NaCl, 25 mM KCl, 10 mM MgCl2; 25 mM Tris-HCl pH 8.0, 2% DMSO; 500 μM BPA into 30 μM aptamer
[32] = tested on: BP33-7TA (DNA, aptamer) CCGCCGATGGTGTGGTGGGCCTAGGGCCGGCGG; assay: ITC; conditions: 100 mM NaCl, 25 mM KCl, 10 mM MgCl2; 25 mM Tris-HCl pH 8.0, 2% DMSO; 500 μM BPA into 30 μM aptamer
[33] = tested on: BP29-3'-MB (DNA, aptamer) GCCGTTGGTGTGGTGGGCCTAGGGCCGGC; assay: square wave voltammetry, aptamer-modified gold electrode; conditions: 100 mM NaCl, 25 mM KCl, 10 mM MgCl2, 25 mM Tris-HCl pH 8.0
[34] = tested on: BP33-21CA (DNA, aptamer) CCGCCGTTGGTGTGGTGGGCATAGGGCCGGCGG; assay: ITC; conditions: 100 mM NaCl, 25 mM KCl, 10 mM MgCl2; 25 mM Tris-HCl pH 8.0, 2% DMSO; 500 μM BPA into 30 μM aptamer
[35] = tested on: BP33-stem-29GT (DNA, aptamer) CCGCCGTTGGTGTGGTGGGCCTAGGGCCTGCGG; assay: ITC; conditions: 100 mM NaCl, 25 mM KCl, 10 mM MgCl2; 25 mM Tris-HCl pH 8.0, 2% DMSO; 500 μM BPA into 30 μM aptamer
[36] = 100 μM tested, no remarkable current change

In the case of `CC(C)(c1ccc(O)cc1)c1ccc(O)cc1`, the Kd [1] is reported as 24.4 ± 1.6 µM, the binding [2] is reported as “no” and the Kd [3] is reported as 9.5 ± 0.5 µM. The Kd [4] was 11.6 ± 1.0 µM, the Kd [5] was 20.2 ± 1.0 µM and the Kd [6] was 15.4 ± 0.9 µM. The binding [7] was “no”, the binding [8] was “no” and the Kd [9] was 307 ± 249 µM. The binding [10] was “no”, the Kd [11] was 56 ± 9.0 µM and the binding [12] was “no”. It also gave a Kd [13] of 12.5 ± 0.8 µM, a Kd [14] of 22.6 ± 6.9 µM and a Kd [15] of 12.4 ± 3.4 µM. It also gave a Kd [16] of 15.2 ± 0.9 µM, a Kd [17] of 24.4 ± 1.8 µM and a Kd [18] of 14.6 ± 0.9 µM. For the same compound, the Kd [19] was 10.5 ± 1.5 µM, the binding [20] was “no” and the binding [21] was “no”. For the same compound, the binding [22] was “no”, the binding [23] was “no” and the binding [24] was “no”. For the same compound, the binding [25] was “no”, the Kd [26] was 16.0 ± 2.2 µM and the binding [27] was “no”. The binding [28] was “no”, the Kd [29] was 51.2 ± 10.4 µM and the binding [30] was “no”. For the same compound, the Kd [31] was 13.4 ± 1.5 µM, the Kd [32] was 68.4 ± 4.9 µM and the binding ([33]; current increased 88% at 500 μM BPA) was “yes”. The Kd [34] was 10.5 ± 0.7 µM and the binding [35] was “no”.
In the case of `CN(C)[C@@H]1C(=O)C(C(N)=O)=C(O)[C@@]2(O)C(=O)C3=C(O)c4c(O)cccc4[C@@](C)(O)[C@H]3C[C@@H]12`, the binding [33, 36] is reported as “no”.
In the case of `Oc1ccc(-c2ccc(O)cc2)cc1`, the binding [33, 36] is reported as “no”.
In the case of `O=S(=O)(c1ccc(O)cc1)c1ccc(O)cc1`, the binding [33, 36] is reported as “no”.
`CN(C)[C@@H]1C(=O)C(C(N)=O)=C(O)[C@@]2(O)C(=O)C3=C(O)c4c(O)cccc4[C@@](C)(O)[C@H]3[C@H](O)[C@@H]12` was tested, and the binding [33, 36] was “no”.
